Measurements as given in ChEMBL document CHEMBL2424536, “Withanolides isolated from Withania somnifera with -glucosidase inhibition” (Med Chem Res, 2013).

Legend:
[1] = (§1) Inhibition of Saccharomyces sp. alpha-glucosidase using p-nitrophenyl a-D-glucopyranoside as substrate by spectrophotometric analysis
[2] = tested on: Saccharomyces sp.; assay: as §1
[3] = tested on: Saccharomyces sp.; assay: Inhibition of Saccharomyces sp. alpha-glucosidase using p-nitrophenyl a-D-glucopyranoside as substrate at 100 ug/ml by spectrophotometric analysis

IC50 [1] [µg/mL] | inhibition [2] | Imax [3] [%] | IC50 ([1]; read-out: IC50) [µM] | SMILES
40.65 | Dose-dependent effect | 94.3 | – | CC1=C(C)C(=O)O[C@@H]([C@](C)(O)[C@H]2CC[C@@H]3[C@]2(C)CC[C@H]2[C@@]3(O)[C@H]3O[C@H]3[C@@]3(O)CC=CC(=O)[C@]23C)C1
– | – | – | 422 | OC[C@H]1NC[C@H](O)[C@@H](O)[C@@H]1O [DUVOGLUSTAT]
38.2 | Dose-dependent effect | 96.1 | – | CC1=C(C)C(=O)O[C@@H]([C@](C)(O)C2=CC[C@@]3(O)[C@@H]4CC=C5CC=CC(=O)[C@]5(C)[C@H]4CC[C@]23C)C1
85.8 | Dose-dependent effect | 69.7 | – | CC1=C(C)C(=O)O[C@@H]([C@](C)(O)[C@H]2CC[C@H]3[C@@H]4CC=C5CC=CC(=O)[C@]5(C)[C@H]4CC[C@]23C)C1
